Format in all cases: cell-based
Holding throughout (settings): compounds at 50 nM and 500 nM

The target in experiment [1] is T1, WEE1 (Homo sapiens, UniProt P30291+Q96SW2).
T1 construct: The supernatant was aspirated as the extracted total cell protein; endogenous in cells; host or cells: human peripheral blood mononuclear cells (hPBMCs)
The experiment is described as follows: Western blot degradation of WEE1 in hPBMCs (24 h). Put shortly:
(§1)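 Read-out is Western blot band grayscale, divided by internal control band and normalised to give percent target protein remaining; degradation rate is 1 minus that value. Cells were human PBMCs exposed to compound at 50 nM and 500 nM for 24 hours.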
(Immunoblotting shows a protein as a band on a membrane.)

Experiment [2] addresses T2, IKZF1 (Homo sapiens, UniProt Q13422+Q96SW2).
T2 construct: The supernatant was aspirated as the extracted total cell protein; endogenous in cells; host or cells: human peripheral blood mononuclear cells (hPBMCs)
The experiment is described as follows: Western blot degradation of IKZF1 in hPBMCs (24 h). Put shortly:
as §1

For experiment [3], the target named is T3, IKZF2 (Homo sapiens, UniProt Q96SW2+Q9UKS7).
T3 construct: The supernatant was aspirated as the extracted total cell protein; endogenous in cells; host or cells: human peripheral blood mononuclear cells (hPBMCs)
The experiment is described as follows: Western blot degradation of IKZF2 in hPBMCs (24 h). Put shortly:
as §1

Experiment [4] addresses T4, IKZF3 (Homo sapiens, UniProt Q96SW2+Q9UKT9).
T4 construct: The supernatant was aspirated as the extracted total cell protein; endogenous in cells; host or cells: human peripheral blood mononuclear cells (hPBMCs)
The experiment is described as follows: Western blot degradation of IKZF3 in hPBMCs (24 h). The procedure, abridged: as §1

Experiment [5] deals with T5, CK1α (Homo sapiens, UniProt P48729+Q96SW2).
T5 construct: The supernatant was aspirated as the extracted total cell protein; endogenous in cells; host or cells: human peripheral blood mononuclear cells (hPBMCs)
The experiment is described as follows: Western blot degradation of CK1α in hPBMCs (24 h). The procedure, abridged:
as §1

In experiment [6] the target is T6, GSPT1 (Homo sapiens, UniProt P15170+Q96SW2).
T6 construct: The supernatant was aspirated as the extracted total cell protein; endogenous in cells; host or cells: human peripheral blood mononuclear cells (hPBMCs)
In words: Western blot degradation of GSPT1 in hPBMCs (24 h). Put shortly:
as §1

Structures are written as SMILES.

T4 sequence (Q9UKT9 whole entry): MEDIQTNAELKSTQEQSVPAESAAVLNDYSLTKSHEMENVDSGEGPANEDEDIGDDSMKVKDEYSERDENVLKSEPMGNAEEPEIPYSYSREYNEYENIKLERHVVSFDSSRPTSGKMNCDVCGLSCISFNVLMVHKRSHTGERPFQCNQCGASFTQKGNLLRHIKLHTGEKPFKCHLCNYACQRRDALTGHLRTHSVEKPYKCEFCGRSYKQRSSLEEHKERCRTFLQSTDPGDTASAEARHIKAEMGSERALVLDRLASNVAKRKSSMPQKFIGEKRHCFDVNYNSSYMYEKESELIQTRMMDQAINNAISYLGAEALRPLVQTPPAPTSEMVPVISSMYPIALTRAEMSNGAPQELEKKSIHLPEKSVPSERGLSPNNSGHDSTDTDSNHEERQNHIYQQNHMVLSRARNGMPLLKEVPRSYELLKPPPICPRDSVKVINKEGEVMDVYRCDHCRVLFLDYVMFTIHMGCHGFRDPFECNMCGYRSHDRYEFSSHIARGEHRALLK
T4 sequence (Q96SW2 whole entry): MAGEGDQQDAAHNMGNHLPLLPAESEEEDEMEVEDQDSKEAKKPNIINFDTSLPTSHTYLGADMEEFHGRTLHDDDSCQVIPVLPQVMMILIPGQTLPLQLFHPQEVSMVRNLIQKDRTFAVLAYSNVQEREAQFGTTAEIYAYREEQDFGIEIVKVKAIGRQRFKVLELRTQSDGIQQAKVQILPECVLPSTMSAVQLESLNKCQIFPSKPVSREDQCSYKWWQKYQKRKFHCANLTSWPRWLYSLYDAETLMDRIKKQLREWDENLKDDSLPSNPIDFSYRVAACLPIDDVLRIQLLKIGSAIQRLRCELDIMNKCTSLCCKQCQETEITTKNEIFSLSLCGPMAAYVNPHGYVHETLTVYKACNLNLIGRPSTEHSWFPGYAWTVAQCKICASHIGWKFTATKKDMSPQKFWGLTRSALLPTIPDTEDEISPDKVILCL
T4 sequence (Q16531 whole entry partner): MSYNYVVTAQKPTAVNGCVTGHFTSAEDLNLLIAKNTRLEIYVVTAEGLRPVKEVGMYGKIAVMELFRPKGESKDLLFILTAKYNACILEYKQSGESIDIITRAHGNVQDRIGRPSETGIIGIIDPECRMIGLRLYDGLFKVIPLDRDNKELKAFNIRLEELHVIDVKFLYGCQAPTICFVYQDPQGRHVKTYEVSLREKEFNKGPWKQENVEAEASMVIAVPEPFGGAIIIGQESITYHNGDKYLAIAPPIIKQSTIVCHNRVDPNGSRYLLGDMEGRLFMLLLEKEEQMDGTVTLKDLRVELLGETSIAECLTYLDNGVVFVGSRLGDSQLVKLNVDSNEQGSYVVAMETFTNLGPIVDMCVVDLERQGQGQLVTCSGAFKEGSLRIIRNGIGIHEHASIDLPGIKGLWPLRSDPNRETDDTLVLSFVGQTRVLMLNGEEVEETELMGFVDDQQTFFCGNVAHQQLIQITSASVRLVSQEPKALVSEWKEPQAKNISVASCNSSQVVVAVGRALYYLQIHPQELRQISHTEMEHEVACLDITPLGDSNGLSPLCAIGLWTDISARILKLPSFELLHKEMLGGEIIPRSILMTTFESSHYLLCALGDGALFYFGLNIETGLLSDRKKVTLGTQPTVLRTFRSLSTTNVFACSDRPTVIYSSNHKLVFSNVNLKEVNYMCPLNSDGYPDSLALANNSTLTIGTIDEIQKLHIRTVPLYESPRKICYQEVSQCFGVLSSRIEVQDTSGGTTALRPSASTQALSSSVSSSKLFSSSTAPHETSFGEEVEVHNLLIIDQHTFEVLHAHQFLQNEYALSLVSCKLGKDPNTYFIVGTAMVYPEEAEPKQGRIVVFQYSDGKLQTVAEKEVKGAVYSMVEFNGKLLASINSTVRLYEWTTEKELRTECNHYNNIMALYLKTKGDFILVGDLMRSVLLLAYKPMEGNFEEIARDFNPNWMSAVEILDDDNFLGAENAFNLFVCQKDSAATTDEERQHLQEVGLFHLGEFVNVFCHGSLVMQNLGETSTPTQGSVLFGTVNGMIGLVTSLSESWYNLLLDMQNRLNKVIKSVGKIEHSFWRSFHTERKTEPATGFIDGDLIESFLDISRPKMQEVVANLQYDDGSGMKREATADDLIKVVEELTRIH
T6 sequence (P15170 whole entry): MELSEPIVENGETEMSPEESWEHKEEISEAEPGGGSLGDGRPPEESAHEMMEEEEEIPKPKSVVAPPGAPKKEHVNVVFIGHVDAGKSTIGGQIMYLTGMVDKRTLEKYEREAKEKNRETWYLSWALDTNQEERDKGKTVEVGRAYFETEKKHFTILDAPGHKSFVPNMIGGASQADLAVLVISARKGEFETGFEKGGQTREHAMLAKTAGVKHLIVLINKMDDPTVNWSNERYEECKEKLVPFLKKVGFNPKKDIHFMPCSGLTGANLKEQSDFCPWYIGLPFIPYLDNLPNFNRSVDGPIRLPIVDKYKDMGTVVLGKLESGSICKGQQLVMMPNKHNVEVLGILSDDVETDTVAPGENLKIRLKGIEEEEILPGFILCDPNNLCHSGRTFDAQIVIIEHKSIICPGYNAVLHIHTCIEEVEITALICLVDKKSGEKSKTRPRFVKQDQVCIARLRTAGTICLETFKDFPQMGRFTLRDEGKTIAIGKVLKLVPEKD
T6 sequence (Q96SW2 whole entry): as the sequence (Q96SW2 whole entry) above
T6 sequence (Q16531 whole entry partner): as the sequence (Q16531 whole entry partner) above
T3 sequence (Q9UKS7 whole entry): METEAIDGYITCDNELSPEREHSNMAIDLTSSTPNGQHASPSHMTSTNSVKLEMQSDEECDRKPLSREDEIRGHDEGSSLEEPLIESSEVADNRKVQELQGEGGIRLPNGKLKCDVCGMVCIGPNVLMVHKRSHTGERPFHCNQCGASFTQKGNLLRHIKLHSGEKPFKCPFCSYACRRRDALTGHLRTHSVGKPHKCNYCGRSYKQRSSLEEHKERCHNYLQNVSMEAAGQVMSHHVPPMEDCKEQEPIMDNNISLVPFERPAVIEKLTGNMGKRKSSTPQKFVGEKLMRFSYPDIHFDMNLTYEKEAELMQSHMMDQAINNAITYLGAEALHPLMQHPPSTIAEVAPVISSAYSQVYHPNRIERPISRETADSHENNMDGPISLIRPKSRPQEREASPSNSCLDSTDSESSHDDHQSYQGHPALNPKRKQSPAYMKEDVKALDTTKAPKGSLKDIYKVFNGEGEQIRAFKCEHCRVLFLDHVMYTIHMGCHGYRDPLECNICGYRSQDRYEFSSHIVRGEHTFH
T3 sequence (Q96SW2 whole entry): as the sequence (Q96SW2 whole entry) above
T3 sequence (Q16531 whole entry partner): as the sequence (Q16531 whole entry partner) above
T1 sequence (P30291 whole entry): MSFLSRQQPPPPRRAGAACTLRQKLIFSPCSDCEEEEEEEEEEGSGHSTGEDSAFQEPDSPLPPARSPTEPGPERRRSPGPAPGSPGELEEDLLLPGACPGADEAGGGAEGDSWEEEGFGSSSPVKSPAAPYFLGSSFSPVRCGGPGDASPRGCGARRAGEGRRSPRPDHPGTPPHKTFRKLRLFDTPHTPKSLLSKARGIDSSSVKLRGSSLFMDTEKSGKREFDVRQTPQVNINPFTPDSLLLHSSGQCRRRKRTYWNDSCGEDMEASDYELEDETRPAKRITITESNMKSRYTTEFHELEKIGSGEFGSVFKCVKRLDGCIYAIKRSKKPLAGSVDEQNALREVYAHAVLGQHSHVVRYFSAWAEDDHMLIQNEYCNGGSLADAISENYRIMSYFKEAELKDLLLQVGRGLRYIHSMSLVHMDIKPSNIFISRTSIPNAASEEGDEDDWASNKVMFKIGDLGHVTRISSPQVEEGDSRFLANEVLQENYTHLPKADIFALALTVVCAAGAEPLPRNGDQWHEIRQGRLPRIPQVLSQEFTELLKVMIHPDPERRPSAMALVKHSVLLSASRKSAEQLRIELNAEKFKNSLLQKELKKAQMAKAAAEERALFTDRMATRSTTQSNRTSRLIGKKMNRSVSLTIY
T1 sequence (Q96SW2 whole entry): as the sequence (Q96SW2 whole entry) above
T1 sequence (Q16531 whole entry partner): as the sequence (Q16531 whole entry partner) above
T2 sequence (Q13422 whole entry): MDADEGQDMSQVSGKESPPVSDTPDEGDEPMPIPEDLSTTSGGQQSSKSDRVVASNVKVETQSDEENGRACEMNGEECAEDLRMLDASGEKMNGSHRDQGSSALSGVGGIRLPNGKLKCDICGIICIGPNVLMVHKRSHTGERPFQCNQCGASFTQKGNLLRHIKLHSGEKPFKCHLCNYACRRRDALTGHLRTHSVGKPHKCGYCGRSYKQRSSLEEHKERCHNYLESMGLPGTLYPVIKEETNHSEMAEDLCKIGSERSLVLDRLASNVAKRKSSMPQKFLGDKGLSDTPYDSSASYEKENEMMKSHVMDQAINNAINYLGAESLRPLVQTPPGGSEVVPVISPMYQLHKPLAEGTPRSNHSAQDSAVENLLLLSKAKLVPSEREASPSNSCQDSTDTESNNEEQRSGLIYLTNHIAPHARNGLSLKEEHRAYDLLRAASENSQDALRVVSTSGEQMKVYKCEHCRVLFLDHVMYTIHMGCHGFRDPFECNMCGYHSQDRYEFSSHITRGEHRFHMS
T2 sequence (Q96SW2 whole entry): as the sequence (Q96SW2 whole entry) above
T2 sequence (Q16531 whole entry partner): as the sequence (Q16531 whole entry partner) above

Turning to `O=C1CCN(N2C(=O)c3ccc(CN4CCC(c5ccc(Br)cc5)CC4)cc3C2=O)C(=O)N1` [GT-06805, 5-((4-(4-bromophenyl)piperidin-1-yl)methyl)-2-(2,4-dioxotetrahydropyrimidin-1(2H)-yl)isoindoline-1,3-dione], the “WEE1 substrate protein remaining %” value in experiment [1] was “B (80%< substrate protein remaining % ≤100%)”. Further, in experiment [2], the “IKZF1 substrate protein remaining %” value was “B (80%< substrate protein remaining % ≤100%)”. Moreover, in experiment [3], the “IKZF2 substrate protein remaining %” value is “B (80%< substrate protein remaining % ≤100%)”. Also, the “IKZF3 substrate protein remaining %” value in experiment [4] is “B (80%< substrate protein remaining % ≤100%)”. Moreover, in experiment [5], the “CK1α substrate protein remaining %” value is “A (0% ≤ substrate protein remaining % ≤80%)”. Further, in experiment [6], the “GSPT1 substrate protein remaining %” value is reported as “B (80%< substrate protein remaining % ≤100%)”.

Regarding `O=C1CCN(N2C(=O)c3ccc(CN4CCC(c5ccccc5F)CC4)cc3C2=O)C(=O)N1` [GT-06877, 2-(2,4-dioxotetrahydropyrimidin-1(2H)-yl)-5-((4-(2-fluorophenyl)piperidin-1-yl)methyl)isoindoline-1,3-dione], the “WEE1 substrate protein remaining %” value in experiment [1] is “B (80%< substrate protein remaining % ≤100%)”. Also, the “IKZF1 substrate protein remaining %” value in experiment [2] is “B (80%< substrate protein remaining % ≤100%)”. For the same molecule, in experiment [3], the “IKZF2 substrate protein remaining %” value was “B (80%< substrate protein remaining % ≤100%)”. The “IKZF3 substrate protein remaining %” value in experiment [4] was “B (80%< substrate protein remaining % ≤100%)”. In addition, in experiment [5], the “CK1α substrate protein remaining %” value is on record as “A (0% ≤ substrate protein remaining % ≤80%)”. For the same molecule, in experiment [6], the “GSPT1 substrate protein remaining %” value is given as “B (80%< substrate protein remaining % ≤100%)”.

Take `O=C1CCN(N2C(=O)c3ccc(CN4CCC(c5ccc(F)cc5)CC4)cc3C2=O)C(=O)N1` [GT-06878, 2-(2,4-dioxotetrahydropyrimidin-1(2H)-yl)-5-((4-(4-fluorophenyl)piperidin-1-yl)methyl)isoindoline-1,3-dione]: in experiment [1], the “WEE1 substrate protein remaining %” value is on record as “B (80%< substrate protein remaining % ≤100%)”. The “IKZF1 substrate protein remaining %” value in experiment [2] is “B (80%< substrate protein remaining % ≤100%)”. Moreover, the “IKZF2 substrate protein remaining %” value in experiment [3] is listed as “B (80%< substrate protein remaining % ≤100%)”. For the same molecule, in experiment [4], the “IKZF3 substrate protein remaining %” value was “B (80%< substrate protein remaining % ≤100%)”. For the same molecule, the “CK1α substrate protein remaining %” value in experiment [5] was “A (0% ≤ substrate protein remaining % ≤80%)”. For the same molecule, the “GSPT1 substrate protein remaining %” value in experiment [6] was “A (0% ≤ substrate protein remaining % ≤80%)”.

Consider `O=C1CCN(N2C(=O)c3ccc(CN4CCC(c5ccccc5C(F)(F)F)CC4)cc3C2=O)C(=O)N1` [GT-06879, 2-(2,4-dioxotetrahydropyrimidin-1(2H)-yl)-5-((4-(2-(trifluoromethyl)phenyl)piperidin-1-yl)methyl)isoindoline-1,3-dione], for which, in experiment [1], the “WEE1 substrate protein remaining %” value was “B (80%< substrate protein remaining % ≤100%)”. In addition, in experiment [2], the “IKZF1 substrate protein remaining %” value is recorded as “B (80%< substrate protein remaining % ≤100%)”. Also, the “IKZF2 substrate protein remaining %” value in experiment [3] was “B (80%< substrate protein remaining % ≤100%)”. Further, the “IKZF3 substrate protein remaining %” value in experiment [4] was “B (80%< substrate protein remaining % ≤100%)”. Besides, the “CK1α substrate protein remaining %” value in experiment [5] was “B (80%< substrate protein remaining % ≤100%)”. In addition, the “GSPT1 substrate protein remaining %” value in experiment [6] is given as “A (0% ≤ substrate protein remaining % ≤80%)”.

In the case of `O=C1CCN(N2C(=O)c3ccc(CN4CCC(c5cccc(C(F)(F)F)c5)CC4)cc3C2=O)C(=O)N1` [GT-06880, 2-(2,4-dioxotetrahydropyrimidin-1(2H)-yl)-5-((4-(3-(trifluoromethyl)phenyl)piperidin-1-yl)methyl)isoindoline-1,3-dione], in experiment [1], the “WEE1 substrate protein remaining %” value was “A (0% ≤ substrate protein remaining % ≤80%)”. The “IKZF1 substrate protein remaining %” value in experiment [2] is on record as “B (80%< substrate protein remaining % ≤100%)”. For the same molecule, the “IKZF2 substrate protein remaining %” value in experiment [3] is “B (80%< substrate protein remaining % ≤100%)”. Also, the “IKZF3 substrate protein remaining %” value in experiment [4] is “B (80%< substrate protein remaining % ≤100%)”. For the same molecule, the “CK1α substrate protein remaining %” value in experiment [5] is “B (80%< substrate protein remaining % ≤100%)”. Besides, in experiment [6], the “GSPT1 substrate protein remaining %” value is “B (80%< substrate protein remaining % ≤100%)”.
